Reference: article PMC8648000 (Bioorganic & medicinal chemistry letters, 2021)

Assays:
[1] = target: T1, human M4 (hM4) receptor (Homo sapiens, UniProt P08173); type: cell-based; conditions: for hM4 EC50: hM4/Gqi5-CHO cells, EC20 acetylcholine, n=1 experiment in triplicate; for fold increase in functional M4 potency versus 24e: compared with 24e
T1 sequence (P08173 1-479): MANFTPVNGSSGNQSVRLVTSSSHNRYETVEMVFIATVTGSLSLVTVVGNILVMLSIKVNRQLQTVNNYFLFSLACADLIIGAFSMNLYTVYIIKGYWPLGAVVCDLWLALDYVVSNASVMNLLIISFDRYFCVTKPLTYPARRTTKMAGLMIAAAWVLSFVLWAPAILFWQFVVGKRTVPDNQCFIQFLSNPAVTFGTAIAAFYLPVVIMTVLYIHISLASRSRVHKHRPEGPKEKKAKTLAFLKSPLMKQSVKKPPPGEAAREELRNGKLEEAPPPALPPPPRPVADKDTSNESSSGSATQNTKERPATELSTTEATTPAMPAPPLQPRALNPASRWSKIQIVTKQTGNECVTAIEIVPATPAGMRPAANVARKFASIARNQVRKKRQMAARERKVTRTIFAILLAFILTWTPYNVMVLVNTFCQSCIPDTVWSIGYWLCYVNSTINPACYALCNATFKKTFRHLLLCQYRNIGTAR

[2] = Rat plasma:brain level; type: in vivo; conditions: SD, brain and plasma, iv, 0.2 mg/kg; for Kp at […]: Kpuu, brain:plasma, SD Rat, 0.2 mg/kg IV
[3] = Rat microsomal intrinsic clearance and predicted hepatic clearance; type: in vitro ADME; conditions: microsomes
[4] = Human microsomal intrinsic clearance and predicted hepatic clearance; type: in vitro ADME; conditions: microsomes

In the case of `Cc1cc(C)c2c(n1)oc1c(NC3CN(c4ncc(C(F)(F)F)cn4)C3)ncnc12` [17f], the “hM4 EC50” value [1] is reported as “complete loss of activity”.
With `Cc1cc(C)c2c(n1)sc1c(N3CCCC3)nccc12` [18d] the Kp uu at […] [2] was 4.87, the CLint scaled [3] was 2100 mL/min/kg and the EC50 [1] was under 350 nM. For the same molecule, the CLint scaled [4] was 161 mL/min/kg.
For `Cc1cc(C)c2c(n1)oc1c(NCc3ccc(C(C)(C)O)cc3)ncnc12` [17e], the “hM4 EC50” value [1] was “complete loss of activity”.
With `Cc1cc(C)c2c(n1)sc1c(C3CCN(c4cncc(F)c4)CC3)ncnc12` [compound 26] the “hM4 EC50” value [1] was “complete loss of activity”.
For `Cc1cc(C)c2c(n1)sc1c(NC3CN(c4ncc(C(F)(F)F)cn4)C3)nccc12` [18c], the “fold increase in hM4 potency versus 16p” value ([1]; compared with 16p) was ~ 44 fold.
`Cc1cc(C)c2c(n1)sc1c(N3CCCC3)ncnc12` [16w] showed a Kp uu at […] [2] of 0.65, a Kp at […] [2] of 0.35 to 0.65 and a CLint scaled [3] of 1900 mL/min/kg. The EC50 [1] was under 350 nM and the CLint scaled [4] was 134 mL/min/kg.
Work on `Cc1cc(C)c2c(n1)sc1c(N3CCC3)ncnc12` [16x] yielded a Kp uu at […] [2] of 0.27, a CLint scaled [3] of 741 mL/min/kg and an EC50 [1] of under 350 nM. For the same molecule, the CLint scaled [4] was 296 mL/min/kg.
For `Cc1cc(C)c2c(n1)sc1c(C3CCOCC3)ncnc12` [24d], the “fold increase in hM4 functional potency versus 24a” value ([1]; compared with 24a) was about 45 fold.
`Cc1cc(C)c2c(n1)sc1c(NCc3ccc(S(C)(=O)=O)cc3)ncnc12` [16o] showed a Kp uu at […] [2] of 0.21, a CLint scaled [3] of 176 mL/min/kg and an EC50 [1] of under 350 nM. For the same molecule, the CLint scaled [4] was 28 mL/min/kg.
In the case of `Cc1cc(C)c2c(n1)sc1c(NCc3ccc(C(C)(C)O)cc3)nccc12` [18b], the Kp uu at […] [2] is reported as 1.16, the CLint scaled [3] is reported as 334 mL/min/kg and the EC50 [1] is reported as under 350 nM. The “fold increase in hM4 potency versus 16m” value ([1]; compared with 16m) was ~ 2.8 fold and the CLint scaled [4] was 50 mL/min/kg.
In the case of `Cc1cc(C)c2c(n1)sc1c(C3CCNCC3)ncnc12` [24e], the “fold loss of hM4 functional potency versus 24d” value ([1]; compared with 24d) is reported as ~ 40 fold.
In the case of `Cc1cc(C)c2c(n1)sc1c(NCc3ccc(C(C)(C)O)cc3F)ncnc12` [16n], the “fold decrease (loss) in hM4 potency versus 16m” value ([1]; compared with 16m) is reported as ~ 2.5 fold.
For `Cc1cc(C)c2c(n1)oc1c(N3CCCC3)ncnc12` [17a], the “hM4 EC50” value [1] was “complete loss of activity”.
`Cc1cc(C)c2c(n1)sc1c(N3CC4(COC4)C3)ncnc12` [16y] showed a Kp uu at […] [2] of 0.4, a Kp at […] [2] of 0.35 to 0.65 and a CLint scaled [3] of 594 mL/min/kg. The CLint scaled [4] was 129 mL/min/kg.
With `Cc1cc(C)c2c(n1)sc1c(C3CCN(CC4CC4)CC3)ncnc12` [compound 30] the “hM4 EC50” value [1] was “complete loss of M4 potency”.
For `Cc1cc(C)c2c(n1)sc1c(NC3CCC3)nccc12` [18g], the Kp uu at […] [2] was 4.18, the CLint scaled [3] was 3860 mL/min/kg and the EC50 [1] was under 350 nM. For the same molecule, the “fold increase in functional hM4 potency versus 16v” value ([1]; compared with 16v) was ~ 4 fold, the “fold increase in human M4 activity versus parent compound VU0152100” value ([1]; compared with VU0152100) was 6 fold and the CLint scaled [4] was 345 mL/min/kg.
In the case of `COc1ccc(CNc2ncnc3c2oc2nc(C)cc(C)c23)cc1F` [17d], the “hM4 EC50” value [1] is reported as “complete loss of activity”.
For `Cc1cc(C)c2c(n1)oc1c(NC3CCC3)ncnc12` [17c], the “fold potency decrease versus 16v” value ([1]; compared with 16v) was 4.4 fold.
With `Cc1cc(C)c2c(n1)sc1c(C3CCN(C(=O)C4CC4)CC3)ncnc12` [28a] the “fold increase in functional M4 potency versus 24e” value [1] was ~ 10 fold.
For `Cc1cc(C)c2c(n1)sc1c(C3CCN(C(=O)C4(C)CC4)CC3)ncnc12` [28b], the Kp uu at […] [2] was 0.35, the Kp at […] [2] was 0.35 to 0.65 and the CLint scaled [3] was 367 mL/min/kg. The “fold increase in functional M4 potency versus 24e” value [1] was 26 fold and the CLint scaled [4] was 25 mL/min/kg.
In the case of `Cc1cc(C)c2c(n1)sc1c(OCc3ccc(C(C)(C)O)cc3)ncnc12` [compound 19], the “fold decrease (loss) in hM4 potency versus 16m” value ([1]; compared with 16m) is reported as 9.6 fold.
